Assay results from US6096732A, “Steroid esters, process for their production and their pharmaceutical use” (Schering AG, priority 1996, dated 2000).

How the values were obtained:
[1] = assay type: physicochemical
Experimental: Studies on Hydrolytic Stability of the Esters According to the Invention
The hydrolytic stability of the esters under strongly basic conditions can be used to assess whether the compounds have adequate stability under physiological conditions.
In each case, 10 mg of compounds 1, 3 and 4 was dissolved at 23° C. in 10 ml of dioxane and mixed with 1 ml of a 1N aqueous sodium hydroxide solution. In each case, 11 samples were drawn, acidified to pH 6 and the ester:alcohol ratio was determined per HPLC. In the graphic visualization,the portion of ester is depicted in percent as a function of the saponification period in hours.

[2] = test system: human, tamoxifen-resistant ZR-75 breast cancer; test: Tumor-inhibiting action on human, tamoxifen-resistant ZR-75 breast cancer in nude mice; assay type: in vivo; conditions: s.c., 8 weeks, vs. untreated control; graph only
Experimental: Breast cancer cell line ZR-75 is an estrogen- and progesterone receptor-positive human line, which can be transplanted serially in the thymic aplastic nude mouse. […] An underline that is used here developed a tamoxifen resistance after a prolonged treatment period.
Female nude/nude mice, 4 weeks old.
Formulation and Administration of Test Substances:
The test substances are dissolved in benzyl benzoate and castor oil (1+4), and the one-time dose is administered at a volume of 0.1 ml s.c. Treatment begins about 7 weeks after implantation (treatment of established tumors). The treatment time is at most 10 weeks.
The tumor fragments of several donor animals are implanted in the animals s.c. on both sides in the flanks. On the day of implantation and on day 60, all animals are implanted with a tamoxifen-releasing pellet (5 mg).
The mice are randomized 7 weeks after implantation of the tumors, and the treatment is begun and carried out for 8 weeks.
Tumor growth is determined by determination of the tumor surface area using a sliding gauge. The tumor surface area is calculated from the product of the longest diameter of the tumor and the diameter that is perpendicular to said longest diameter. At the end of the test, the animals are killed, the tumors are prepared outside and weighed.

[3] = test system: NMU-induced breast tumor of rats; test: Influence of the tumor growth in N-Methyl-N-nitrosourea (NMU) model in rats; assay type: in vivo, rat (Sprague-Dawley); conditions: p.o., 6 times per week, various dosages; vs. reference compound 3
Experimental: Influence of the Tumor Growth in N-Methyl-N-nitrosourea (NMU)--Model in Rats
The growth of the NUM-induced breast tumor of rats is largely dependent on estrogens and gestagens and less on prolactin. Estrogen and progesterone antagonists result in inhibiting tumor growth.
Female rats (Sprague-Dawley), 55 (±3) days old; at least 9 animals per group.
The animals receive 50 mg/kg of NMU on a one-time basis. Then, the animals are checked once a week by palpation for tumor development. About 6 to 8 weeks after NMU treatment, one or more tumors develop per animal. At a minimum size of 150 mm^2 /tumor/animal, treatment (6 times per week) begins with the test substance, the determination of body weight and tumor size (with the aid of a sliding gauge; once per week).
The results for compound 1 are graphically depicted in the following figures for various dosages in each case in comparison to the untreated control, an ovariectomy group as well as reference compound 3, (Z)-6'-(4-cyanophenyl)-9,11α-dihydro-17β-hydroxy-17α-[3-(1-oxo-2-methylpropoxy)-1-propenyl]-4'H-naphtho[3',2',1':10,9,11]estr-4-en-3-one. […] This is surprising because of the only slight structural differences. [drawing 5] Tumor-Inhibiting Action on the Hormone-Sensitive Human Breast Cancer Cell Line ZR-75.

[4] = assay type: physicochemical; remark: listed apart in the source
Experimental: Solubility Studies of the Esters that are Mentioned in Examples 1 to 6
In the following table, the solubility of compounds 1 to 6 is depicted in comparison to unesterified reference compound 1 (Z)-6'-(4-cyanophenyl)-9,11α-dihydro-17β-hydroxy-17α-(3-hydroxy-1-propenyl)-4'H-naphtho[3',2',1':10,9,11]estra-4-en-3-one (Example 1 in DE-A 4216003). For solubility, the temperature is indicated in °C., in which 50 mg of substance is dissolved in 1 ml of a 1:4 benzyl benzoate/castor oil mixture.

[5] = test system: breast cancer cell line ZR-75; conditions: standard treatment; cited from earlier work

Structure (SMILES) | stability compared to reference compound 3 [1] | stability under strongly basic conditions [1] | Solubility (temperature at which 50 mg of substance is dissolved in 1 ml) [4] [°C] | also measured
CC(C)CC(=O)OC/C=C\[C@]1(O)CC[C@H]2[C@@H]3CCC4=CC(=O)CC[C@@]45Cc4cc(-c6ccc(C#N)cc6)ccc4[C@@H](C[C@@]21C)[C@@H]35 [Compound 1, (Z)-6'-(4-Cyanophenyl)-9,11α-dihydro-17β-hydroxy-17α-[3-(1-oxo-3-methylbutoxy)-1-propenyl]-4'H-naphtho[3',2',1':10,9,11]estr-4-en-3-one] | significantly improved compared to reference compound 3 | very good stability | 50 | inhibition of the course of growth of the tumors [2]: inhibition of the course of growth of the tumors; tumor-inhibiting action [3]: tumor-inhibiting action that is superior to that of reference compound 3
CC(C)C(=O)OCC/C=C\[C@]1(O)CC[C@H]2[C@@H]3CCC4=CC(=O)CC[C@@]45Cc4cc(-c6ccc(C#N)cc6)ccc4[C@@H](C[C@@]21C)[C@@H]35 [Compound 2, (Z)-6'-(4-Cyanophenyl)-9,11α-dihydro-17β-hydroxy-17α-[4-(1-oxo-2-methylpropoxy)-1-butenyl]-4'H-naphtho[3',2',1':10,9,11]estr-4-en-3-one] | – | – | 23 | –
CC(C)CC(=O)OCC/C=C\[C@]1(O)CC[C@H]2[C@@H]3CCC4=CC(=O)CC[C@@]45Cc4cc(-c6ccc(C#N)cc6)ccc4[C@@H](C[C@@]21C)[C@@H]35 [Compound 3, (Z)-6'-(4-cyanophenyl)-9,11α-dihydro-17β-hydroxy-17α-[4-(1-oxo-3-methylbutoxy)-1-butenyl]-4'H-naphtho[3',2',1':10,9,11]estr-4-en-3-one] | significantly improved compared to reference compound 3 | very good stability | 23 | –
CC(C)CC(=O)OCC/C=C\[C@]1(O)CC[C@H]2[C@@H]3CCC4=CC(=O)CC[C@@]45Cc4cc(-c6ccc(F)cc6)ccc4[C@@H](C[C@@]21C)[C@@H]35 [Compound 4, (Z)-9,11α-dihydro-6'-(4-fluorophenyl)-17β-hydroxy-17α-[4-(1-oxo-3-methylbutoxy)-1-butenyl]-4'H-naphtho[3',2',1':10,9,11]estr-4-en-3-one] | significantly improved compared to reference compound 3 | very good stability | 50 | –
CC(C)CC(=O)OC/C=C\[C@]1(O)C=C[C@H]2[C@@H]3CCC4=CC(=O)CC[C@@]45Cc4cc(-c6ccc(C#N)cc6)ccc4[C@@H](C[C@@]21C)[C@@H]35 [Compound 5, (Z)-6'-(4-Cyanophenyl)-9,11α-dihydro-17β-hydroxy-17α-[3-(1-oxo-3-methylbutoxy)-1-propenyl]-4'H-naphtho[3',2',1':10,9,11]estra-4,15-dien-3-one] | – | – | 23 | –
CC(C)C(=O)OC/C=C\[C@]1(O)C=C[C@H]2[C@@H]3CCC4=CC(=O)CC[C@@]45Cc4cc(-c6ccc(C#N)cc6)ccc4[C@@H](C[C@@]21C)[C@@H]35 [Compound 6, (Z)-6'-(4-Cyanophenyl)-9,11α-dihydro-17β-hydroxy-17α-[3-(1-oxo-2-methylpropoxy)-1-propenyl]-4'H-naphtho[3',2',1':10,9,11]estra-4,15-dien-3-one] | – | – | < 50 | –
C[C@]12C[C@@H]3c4ccc(-c5ccc(C#N)cc5)cc4C[C@]45CCC(=O)C=C4CC[C@H]([C@H]35)[C@@H]1CC[C@@]2(O)/C=C\CO [Reference Compound 1, (Z)-6'-(4-cyanophenyl)-9,11α-dihydro-17β-hydroxy-17α-(3-hydroxy-1-propenyl)-4'H-naphtho[3',2',1':10,9,11]estra-4-en-3-one, reference compound] | – | – | > 100 | –
CC(C)C(=O)OC/C=C\[C@]1(O)CC[C@H]2[C@@H]3CCC4=CC(=O)CC[C@@]45Cc4cc(-c6ccc(C#N)cc6)ccc4[C@@H](C[C@@]21C)[C@@H]35 [Reference Compound 3, (Z)-6'-(4-cyanophenyl)-9,11α-dihydro-17β-hydroxy-17α-[3-(1-oxo-2-methylpropoxy)-1-propenyl]-4'H-naphtho[3',2',1':10,9,11]estr-4-en-3-one, reference compound] | – | – | 100 | –
CC/C(=C(\c1ccccc1)c1ccc(OCCN(C)C)cc1)c1ccccc1 [tamoxifen] | – | – | – | response of ZR-75 to tamoxifen [5]: inhibiting growth
